Patent publication US12564193B2, “Isoxazoline-substituted benzamide derivative, and preparation method therefor and use thereof” (SHANDONG UNITED PESTICIDE INDUSTRY CO., LTD., priority 2020, dated 2026)
Read-outs that look alike come from different tables or passages of the source.

Key:
Type in all cases: in vivo
[1] = test system: Frankliniella occidentalis; assay: Insecticidal activity, spray on pre-infested radish plants: Frankliniella occidentalis; conditions: for pest or weed control at 1 ppm / pest or weed control at 10 ppm / pest or weed control at 25 ppm: Frankliniella occidentalis, 144 h, read-out: fatality rate on Frankliniella occidentalis; for Fatality rate on Frankliniella occidentalis (%): Table 3
Protocol: (§1) For determination of insecticidal activity, the test method was as follows: a test solution with a desired concentration was prepared by dissolving a test compound sample in a suitable solvent (the kind of solvent was such as acetone, methanol, DMSO, etc., and was selected according to its dissolving ability for the sample). The test cell was composed of a small open container with 12-15 day old radish plants inside. The plants were pre-infested by placing 30-40 pests located on one leaf cut from the cultivated plant on one leaf of the test plant (leaf cutting method). As the leaves dehydrated, the pests moved on the test plants. After the pre-infesting, the soil of the test cells was covered with a layer of sand.
The test method was as follows: the test was repeated for three times, and after spraying the formulated test compound, each test unit was allowed to dry for 1 hour, and then a black mesh cover was placed at the top. The test units were kept in a growth chamber at 25° C. and 70% relative humidity for 6 days. The mortality (fatality rate) of the insects was then visually assessed for each test unit, and the fatality rate was calculated as follows:
[formula] (1) Test Results for the Control of Frankliniella occidentalis by Exemplary Example Compounds

Plutella xylostella = assay: Insecticidal activity, spray on pre-infested radish plants: Plutella xylostella; conditions: for pest or weed control at 0.1 ppm / pest or weed control at 1 ppm / pest or weed control at 10 ppm: Plutella xylostella, 144 h, read-out: fatality rate on Plutella xylostella; for Fatality rate on Plutella xylostella (%): Table 3
Protocol: as §1
(§2) The test method was as follows: the test was repeated for three times, and after spraying the formulated test compound, each test unit was allowed to dry for 1 hour, and then a black mesh cover was placed at the top. The test units were kept in a growth chamber at 25° C. and 70% relative humidity for 6 days. The mortality (fatality rate) of the insects was then visually assessed for each test unit, and the fatality rate was calculated as follows: […]

Pieris rapae = assay: Insecticidal activity, spray on pre-infested radish plants: Pieris rapae; conditions: 144 h, read-out: fatality rate on Pieris rapae
Protocol: as §1, §2

Mythimna separata = assay: Insecticidal activity, spray on pre-infested radish plants: Mythimna separata; conditions: for pest or weed control at 0.1 ppm / pest or weed control at 1 ppm / pest or weed control at 10 ppm: Mythimna separata, 144 h, read-out: fatality rate on Mythimna separata; for Fatality rate on Mythimna separata (%): Table 3
Protocol: as §1, §2

Spodoptera litura = assay: Insecticidal activity, spray on pre-infested radish plants: Spodoptera litura; conditions: 144 h, read-out: fatality rate on Spodoptera litura
Protocol: as §1, §2

Chilo suppressalis = assay: Insecticidal activity, spray on pre-infested radish plants: Chilo suppressalis; conditions: for pest or weed control at 0.1 ppm / pest or weed control at 1 ppm / pest or weed control at 10 ppm: Chilo suppressalis, 144 h, read-out: fatality rate on Chilo suppressalis; for Fatality rate on Chilo suppressalis (%): Table 3
Protocol: as §1, §2

Cnaphalocrocis medinalis = assay: Insecticidal activity, spray on pre-infested radish plants: Cnaphalocrocis medinalis; conditions: 144 h, read-out: fatality rate on Cnaphalocrocis medinalis
Protocol: as §1, §2

Tetranychus cinnabarinus = assay: Acaricidal activity, slide immersion of female adult mites: Tetranychus cinnabarinus; conditions: read-out: fatality rate on Tetranychus cinnabarinus
Protocol: The test method was as follows: a test solution with a desired concentration was prepared by dissolving a test compound sample in a suitable solvent (the kind of solvent was such as acetone, methanol, DMSO, etc., and was selected according to its dissolving ability for the sample). A double-sided adhesive tape was cut into 2-3 cm long pieces, the pieces were attached to one end of a microscope slide, paper pieces on the adhesive tape were removed using tweezers, female adult mites which were consistent in size, bright in body color and lively in action were selected using a zero-size brush pen, the backs of the female adult mites were adhered to the double-sided adhesive tape (note: the adhesion should not cover mite feet, mite whiskers and mouthparts), with 4 rows of mites adhered to each piece and 10 heads of the mites adhered to each row.
One end of the glass slide with the mites was immersed into a drug liquid, with slightly shaking for 5 seconds, and then the slide was taken out. The excess drug liquid around the mite body and is surroundings is quickly sucked off using absorbent paper. The slide was placed in the biochemical incubator described above, and the results were checked by using binoculars after 24 hours. The mites were slightly touched by using a brush pen, the mites with immobility in feet were considered to be dead, and the fatality rate was calculated. The fatality rate was calculated as follows: […]

For `Cc1cc(C2=NOC(c3cc(Cl)c(F)c(Cl)c3)(C(F)(F)F)C2)ccc1C(=O)NCc1cnccc1C(F)(F)F` (stereo not drawn) [Compound 3], the pest or weed control at 1 ppm [1] was greater than 80%, the pest or weed control at 10 ppm [1] was greater than 80% and the pest or weed control at 25 ppm [1] was greater than 80%. For the same molecule, the pest or weed control at 0.1 ppm (Plutella xylostella) was greater than 80%, the pest or weed control at 1 ppm (Plutella xylostella) was greater than 80% and the pest or weed control at 10 ppm (Plutella xylostella) was greater than 80%. The pest or weed control at 0.1 ppm (Pieris rapae) was greater than 80%, the pest or weed control at 1 ppm (Pieris rapae) was greater than 80% and the pest or weed control at 10 ppm (Pieris rapae) was greater than 80%. The pest or weed control at 0.1 ppm (Mythimna separata) was greater than 80%, the pest or weed control at 1 ppm (Mythimna separata) was greater than 80% and the pest or weed control at 10 ppm (Mythimna separata) was greater than 80%. It also gave a pest or weed control at 0.1 ppm (Spodoptera litura) greater than 80%, a pest or weed control at 1 ppm (Spodoptera litura) greater than 80% and a pest or weed control at 10 ppm (Spodoptera litura) greater than 80%. It also gave a pest or weed control at 0.1 ppm (Chilo suppressalis) greater than 80%, a pest or weed control at 1 ppm (Chilo suppressalis) greater than 80% and a pest or weed control at 10 ppm (Chilo suppressalis) greater than 80%. It also gave a pest or weed control at 0.1 ppm (Cnaphalocrocis medinalis) greater than 80%, a pest or weed control at 1 ppm (Cnaphalocrocis medinalis) greater than 80% and a pest or weed control at 10 ppm (Cnaphalocrocis medinalis) greater than 80%. The pest or weed control at 1 ppm (Tetranychus cinnabarinus; 24 h) was greater than 80%, the pest or weed control at 10 ppm (Tetranychus cinnabarinus; 24 h) was greater than 80% and the pest or weed control at 25 ppm (Tetranychus cinnabarinus; 24 h) was greater than 80%.
For `Cc1cc(C2=NOC(c3cc(Cl)c(F)c(Cl)c3)(C(F)(F)F)C2)ccc1C(=O)NCc1ncc(C(F)(F)F)cc1Cl` (stereo not drawn) [Compound 9, N-((3-chloro-5-(trifluoromethyl)pyridin-2-yl)methyl)-4-(5-(3,5-dichloro-4-fluorophenyl)-5-(trifluoromethyl)-4,5-dihydroisoxazol-3-yl)-2-methylbenzamide], the “Fatality rate on Frankliniella occidentalis (%)” value ([1]; 1 ppm) was 95%, the “Fatality rate on Frankliniella occidentalis (%)” value ([1]; 10 ppm) was 100% and the “Fatality rate on Frankliniella occidentalis (%)” value ([1]; 25 ppm) was 100%. For the same molecule, the pest or weed control at 1 ppm [1] was greater than 80%, the pest or weed control at 10 ppm [1] was greater than 80% and the pest or weed control at 25 ppm [1] was greater than 80%. The “Fatality rate on Plutella xylostella (%)” value (Plutella xylostella; 0.1 ppm) was 100%, the “Fatality rate on Plutella xylostella (%)” value (Plutella xylostella; 1 ppm) was 100% and the “Fatality rate on Plutella xylostella (%)” value (Plutella xylostella; 10 ppm) was 100%. It also gave a pest or weed control at 0.1 ppm (Plutella xylostella) greater than 80%, a pest or weed control at 1 ppm (Plutella xylostella) greater than 80% and a pest or weed control at 10 ppm (Plutella xylostella) greater than 80%. The pest or weed control at 0.1 ppm (Pieris rapae) was greater than 80%, the pest or weed control at 1 ppm (Pieris rapae) was greater than 80% and the pest or weed control at 10 ppm (Pieris rapae) was greater than 80%. For the same molecule, the “Fatality rate on Mythimna separata (%)” value (Mythimna separata; 0.1 ppm) was 100%, the “Fatality rate on Mythimna separata (%)” value (Mythimna separata; 1 ppm) was 100% and the “Fatality rate on Mythimna separata (%)” value (Mythimna separata; 10 ppm) was 100%. For the same molecule, the pest or weed control at 0.1 ppm (Mythimna separata) was greater than 80%, the pest or weed control at 1 ppm (Mythimna separata) was greater than 80% and the pest or weed control at 10 ppm (Mythimna separata) was greater than 80%. For the same molecule, the pest or weed control at 0.1 ppm (Spodoptera litura) was greater than 80%, the pest or weed control at 1 ppm (Spodoptera litura) was greater than 80% and the pest or weed control at 10 ppm (Spodoptera litura) was greater than 80%. For the same molecule, the “Fatality rate on Chilo suppressalis (%)” value (Chilo suppressalis; 0.1 ppm) was 95%, the “Fatality rate on Chilo suppressalis (%)” value (Chilo suppressalis; 1 ppm) was 100% and the “Fatality rate on Chilo suppressalis (%)” value (Chilo suppressalis; 10 ppm) was 100%. The pest or weed control at 0.1 ppm (Chilo suppressalis) was greater than 80%, the pest or weed control at 1 ppm (Chilo suppressalis) was greater than 80% and the pest or weed control at 10 ppm (Chilo suppressalis) was greater than 80%. It also gave a pest or weed control at 0.1 ppm (Cnaphalocrocis medinalis) greater than 80%, a pest or weed control at 1 ppm (Cnaphalocrocis medinalis) greater than 80% and a pest or weed control at 10 ppm (Cnaphalocrocis medinalis) greater than 80%. The pest or weed control at 1 ppm (Tetranychus cinnabarinus; 24 h) was greater than 80%, the pest or weed control at 10 ppm (Tetranychus cinnabarinus; 24 h) was greater than 80% and the pest or weed control at 25 ppm (Tetranychus cinnabarinus; 24 h) was greater than 80%.
`Cc1cc(C2=NOC(c3cc(F)c(F)c(F)c3)(C(F)(F)F)C2)ccc1C(=O)NCc1ccc(Cl)nc1` (stereo not drawn) [Compound 2, N-((6-chloropyridin-3-yl)methyl)-2-methyl-4-(5-(trifluoromethyl)-5-(3,4,5-trifluorophenyl)-4,5-dihydroisoxazol-3-yl)benzamide] was tested, and the “Fatality rate on Frankliniella occidentalis (%)” value ([1]; 1 ppm) was 90%, the “Fatality rate on Frankliniella occidentalis (%)” value ([1]; 10 ppm) was 100% and the “Fatality rate on Frankliniella occidentalis (%)” value ([1]; 25 ppm) was 100%. The pest or weed control at 1 ppm ([1]; dose 1 ppm, spray, 6 days) was greater than 80%, the pest or weed control at 10 ppm ([1]; dose 10 ppm, spray, 6 days) was greater than 80% and the pest or weed control at 25 ppm ([1]; dose 25 ppm, spray, 6 days) was greater than 80%. The “Fatality rate on Plutella xylostella (%)” value (Plutella xylostella; 0.1 ppm) was 85%, the “Fatality rate on Plutella xylostella (%)” value (Plutella xylostella; 1 ppm) was 100% and the “Fatality rate on Plutella xylostella (%)” value (Plutella xylostella; 10 ppm) was 100%. For the same molecule, the pest or weed control at 0.1 ppm (Plutella xylostella; dose 0.1 ppm, spray, 6 days) was greater than 80%, the pest or weed control at 1 ppm (Plutella xylostella; dose 1 ppm, spray, 6 days) was greater than 80% and the pest or weed control at 10 ppm (Plutella xylostella; dose 10 ppm, spray, 6 days) was greater than 80%. For the same molecule, the pest or weed control at 0.1 ppm (Pieris rapae; dose 0.1 ppm, spray, 6 days) was greater than 80%, the pest or weed control at 1 ppm (Pieris rapae; dose 1 ppm, spray, 6 days) was greater than 80% and the pest or weed control at 10 ppm (Pieris rapae; dose 10 ppm, spray, 6 days) was greater than 80%. The “Fatality rate on Mythimna separata (%)” value (Mythimna separata; 0.1 ppm) was 85%, the “Fatality rate on Mythimna separata (%)” value (Mythimna separata; 1 ppm) was 100% and the “Fatality rate on Mythimna separata (%)” value (Mythimna separata; 10 ppm) was 100%. It also gave a pest or weed control at 0.1 ppm (Mythimna separata; dose 0.1 ppm, spray, 6 days) greater than 80%, a pest or weed control at 1 ppm (Mythimna separata; dose 1 ppm, spray, 6 days) greater than 80% and a pest or weed control at 10 ppm (Mythimna separata; dose 10 ppm, spray, 6 days) greater than 80%. The pest or weed control at 0.1 ppm (Spodoptera litura; dose 0.1 ppm, spray, 6 days) was greater than 80%, the pest or weed control at 1 ppm (Spodoptera litura; dose 1 ppm, spray, 6 days) was greater than 80% and the pest or weed control at 10 ppm (Spodoptera litura; dose 10 ppm, spray, 6 days) was greater than 80%. For the same molecule, the “Fatality rate on Chilo suppressalis (%)” value (Chilo suppressalis; 0.1 ppm) was 80%, the “Fatality rate on Chilo suppressalis (%)” value (Chilo suppressalis; 1 ppm) was 100% and the “Fatality rate on Chilo suppressalis (%)” value (Chilo suppressalis; 10 ppm) was 100%. For the same molecule, the pest or weed control at 0.1 ppm (Chilo suppressalis; dose 0.1 ppm, spray, 6 days) was greater than 80%, the pest or weed control at 1 ppm (Chilo suppressalis; dose 1 ppm, spray, 6 days) was greater than 80% and the pest or weed control at 10 ppm (Chilo suppressalis; dose 10 ppm, spray, 6 days) was greater than 80%. The pest or weed control at 0.1 ppm (Cnaphalocrocis medinalis; dose 0.1 ppm, spray, 6 days) was greater than 80%, the pest or weed control at 1 ppm (Cnaphalocrocis medinalis; dose 1 ppm, spray, 6 days) was greater than 80% and the pest or weed control at 10 ppm (Cnaphalocrocis medinalis; dose 10 ppm, spray, 6 days) was greater than 80%. The pest or weed control at 1 ppm (Tetranychus cinnabarinus; dose 1 ppm, immersion 5 seconds, checked after 24 hours) was greater than 80%, the pest or weed control at 10 ppm (Tetranychus cinnabarinus; dose 10 ppm, immersion 5 seconds, checked after 24 hours) was greater than 80% and the pest or weed control at 25 ppm (Tetranychus cinnabarinus; dose 25 ppm, immersion 5 seconds, checked after 24 hours) was greater than 80%.
